Entries after “also recorded” stand apart in the source; their conditions may differ. Where two headings read alike, the source gives them in different places.
Tests used:
CEM-SS cells = test: cells; assay type: cell-based; details: for IC50: 50% cytotoxicity, read-out: IC50
Experimental: Agents Chemother. […] Briefly, cells are infected with HIV-1 RF (or other virus to be tested) in the presence of various dilutions of test compounds (thiolesters and controls). The cultures are incubated for seven days. […] The cell death is measured by XTT dye reduction. XTT is a soluble tetrazolium dye that measures mitochondrial energy output, similar to MTT. Positive controls using dextran sulfate (an attachment inhibitor) or 3′-Azido-2′-3′-dideoxythymidine, AZT (a reverse transcriptase inhibitor) are added to each assay. Individual assays are done in duplicate using a sister plate method.

virus attachment = test: cell-based p24 attachment assay; design: species or system HIV-1
Experimental: The cell-based p24 attachment assay was performed as described in Rice (1995) Science 270:1194-1197. Viral inactivation assays were carried out as described in Rice (1995) Science 270:1194-1197, and Turpin (1997) supra, with minor modifications. Briefly, MAGI-CCR-5 cells were plated (4×10^4 cells per well) in flat bottomed 2-cm well plates for 24 h, after which the culture media was removed and compound-treated virus was added. The virus used was obtained by transient transfection of pNL4-3 into HeLa cells yielding the replication competent NL4-3 virus. Virus containing supernatants were treated for 2 h at 37° C. after which residual compound was removed by centrifugation (18,000×g, 1 h, 4° C.). Virus pellets were resuspended and placed on the MAGI-CCR-5 monolayers and cultured for 48 h. Monolayers were fixed and stained with X-gal solution and blue cells counted.

[1] = system: fusion of the HL2/3 and MAGI-CCR-5 cells; test: viral fusion assay (HL2/3 and MAGI-CCR-5 co-culture); assay type: cell-based
Experimental: Determination of the effect of the test compounds on viral fusion were carried out as follows. Briefly, HL2/3 cells stably expressing HIV-1 Tat and cell surface gp120 and MAGI-CCR-5 cells stably expressing CD4 and CCR5 on their cell surface, containing a β-galactosidase reporter gene under the control of the HIV-1 LTR were pretreated with test compound for 1 h at 37° C. After incubation, the cells were mixed in […] (2×10^5 MAGI-CCR-5 to 8×10^5 HL2/3 cells) and co-cultured for 18 h at 37° C.; cultures were fixed and stained with X-gal solution for β-galactosidase activity. Blue cells represented the Tat transactivation of the HV-1 LTR upon fusion of the HL2/3 and MAGI-CCR-5 cells via the CD4/CCR5 co-receptor gp120 interaction.

[2] = target: T1, Virion-associated NCp7 proteins from cell-free HIV-1MN (Human immunodeficiency virus type 1 group M subtype B, UniProt P05888); test: Virion NCp7 cross-linking (non-reducing Western blotting)
T1 construct: attack on the mature NCp7 retroviral zinc fingers in the cell-free virus; endogenous in cells
Experimental: The interaction of zinc finger inhibitors, such as the thiolesters of the invention, with cell-free virus can result in modification of intravirion NCp7 protein and loss of infectivity. Virion-associated NCp7 proteins from cell-free HIV-1MN were treated with thiolester compounds 44 and 45. They were also evaluated by non-reducing Western blotting using HIV-1 NCp7-specific antibodies. […] Cross-linking by compound 45 was due to formation of intermolecular disulfide bonds because reduction with 2-mercaptoethanol (β-ME) completely reversed the gel retardation.
Virion cross linking was performed as described by Rice (1995) Science 270:1194-1197 and Turpin (1997) Antiviral Chem. Chemother. 8:60-67. Briefly, highly purified HIV-1MN (11.8 μg total protein) was incubated for 2 hour with concentrations of compound. Virions were concentrated and residual compound was removed by centrifugation (18,000×g, 1 h, 4° C.). The viral pellet was solubilized in 0.5 M Tris-HCl, (pH 6.8), 50% glycerol, 8% SDS and 0.4% bromophenol blue and proteins resolved by Western blotting. Western blotting to detect the expression of HIV-1 proteins in U1 cells or virus pellets for virion cross-linking experiments was carried out as described by Turpin (1996) J. Virol. 70:6180-6189. Briefly, 50 μg of total cellular protein for U1 experiments or the. total virion pellet (11.8 μg total viral protein) for NCp7 cross linking studies was resolved on 4 to 20% polyacrylamide gels in SDS with Tris-Glycine (Novex, San Diego Calif.). Samples for reduced gels were boiled for 5 min in the presence of 5% β-ME prior to loading. Resolved proteins were electroblotted on to polyvinylidene difluoride (PVDF) membranes, and HIV-1 specific proteins were detected using a mixture of goat anti-HIV-1 NCp7 and p24 or anti-NCp7 for virion proteins alone (a kind gift of L. E. Henderson, AIDS Vaccine Program NCI-FCRDC, Frederick, Md.). Western blots were developed using standard chemiluminescence methodologies, as produced and described by Dupont-NEN, Wilmington, Del.
Purified concentrated retrovirus and antisera against the purified NC protein of the virus can be used to test the ability of a specific compound to penetrate the virus and react with the NC protein by forming disulfide complexes in the core of the virus. Compound are mixed with the whole retrovirus under reaction conditions appropriate for the compound. The virus is then removed from the reagent by centrifugation and disrupted in, e.g., standard SDS-PAGE sample buffer with (reduced) and without (non-reduced) 2-mercaptoethanol. The viral proteins are then separated by standard SDS-PAGE and the sample examined for the presence or absence of the monomeric zinc finger protein in the non-reduced sample. Depending upon the virus used in the experiment and the conditions of electrophoresis, the zinc finger protein can be visualized by protein staining methods, or by immuno-blot methods. Compounds which react with the zinc finger protein by attacking the zinc finger complexes and forming disulfide cross-linked products inactivate the virus. Thus, compounds of interest (i.e., those which cause cross-linking), including the thiolesters of the invention, reduce the amount of monomeric zinc finger protein detected.

U1 cells = test: Cell viability of TNFα-induced U1 cells; assay type: cell-based
Experimental: Thiolester compounds were also tested for their ability to. inhibit HIV-1 replication in TNFα-induced U1 and ACH-2 cells. U1 cells were induced with 5 ng/ml of TNFα in the presence of various concentrations of the thiolesters 44, 45 or 47. Forty-eight hours later the cultures were characterized for virus p24 antigen production and cell viability. […] Compound 44 killed 60% of the cells at 200 μM. […] Precursor processing evaluation performed as described by Turpin (1997) Antiviral Chem. Chemother. 8:60-69. Thus, thiolester PATEs initiate intracellular disulfide cross-linking of precursor polyproteins during late phase virus assembly and mediate a direct virucidal effect via an attack on the mature NCp7 retroviral zinc fingers in the cell-free virus.

[3] = Human immunodeficiency virus 1, Table 7, high dose test 100 μM, read-out: Attachment I50

SMILES	IC50 (CEM-SS cells; Table 5)	IC50 (CEM-SS cells; Table 10)	cellular toxicity (in words) (CEM-SS cells; high test dose of 316 μM)	inhibition of virus attachment (in words) (virus attachment)	IC50 (virus attachment; [3])	inhibition of fusion to host cells (in words) [1]	intravirion NCp7 cross-linking (in words) [2]	cellular toxicity in U1 cells (U1 cells; high test dose of 100 μM)	cellular toxicity in U1 cells (U1 cells; higher dose testing (300 μM))	IC50 (CEM-SS cells; Homo sapiens, CEM-SS, Table 6)	IC50 (virus attachment; Human immunodeficiency virus 1, read-out: Attachment I50)	cells killed (U1 cells; U1 cells, at 200 μM)
CC(=O)NS(=O)(=O)c1ccc(NC(=O)c2ccccc2SC(=O)CCCC[n+]2ccccc2)cc1 [Compound 45, N-[2-(5-pyridinio-valeroylthio)benzoyl]sulfacetamide bromide]	>316 µM	>316 µM	no toxicity	did not inhibit	> 100 µM	did not inhibit	extensive cross-linking of NCp7; also recorded: strong cross-linker of intravirion NCp7	No cellular toxicity	no toxicity	–	–	–
O=C(O)CCCC[n+]1ccccc1.[Br-] [Compound 53, 5-pyridiniovaleric acid]	–	–	–	–	–	–	Neither intravirion cross-linkage of NCp7 nor virucidal activity were detected	–	–	> 316 µM	–	–
O=C(CCCC[n+]1ccccc1)Sc1ccccc1C(=O)Nc1ccc(S(=O)(=O)c2ccc([N+](=O)[O-])cc2)cc1 [Compound 47]	–	–	–	did not inhibit	–	did not inhibit	did not effectively initiate NCp7 cross-linking	No cellular toxicity	no toxicity	–	> 100 µM	–
CC(=O)NS(=O)(=O)c1ccc(NC(=O)c2ccccc2SC(=O)CCCCBr)cc1 [Compound 44, N-[2-(5-bromovaleroylthio)benzoyl]sulfacetamide]	184.5 µM	–	–	did not inhibit	> 100 µM	did not inhibit	very poor cross-linking agent	No cellular toxicity	–	–	–	60%

Reference: patent publication US7625917B2, “Thiolesters and uses thereof” (priority 1998, dated 2009)
